Measured values reported in patent US20170143748A1, “ANTI-TUMOR PHARMACEUTICAL APPLICATION OF PENTACYCLIC TRITERPENE SAPONIN COMPOUNDS OF SZECHUAN MELANDIUM ROOT” (priority 2014, published 2017).
Read-outs that look alike come from different tables or passages of the source.

Columns and labels:
Assay type in all cases: cell-based, Human
BGC823 = test: MTT inhibition of tumor cells in vitro (Example 3); details: Homo sapiens, BGC-823, 48 h, 40 μg/mL, read-out: Inhibition rate, BGC823
Description: (§1) Human resources tumor cell line […], […], HT29, MCF-7 and A875 were provided by Cancer Hospital, Chinese Academy of Medical Sciences.
(§2) Cells were passaged every 2 or 3 days, and all the experiments were carried out on exponentially growing cells.
(§3) All cells were cultured in a humidified atmosphere (5% CO2 and […]), and passaged every 2 or 3 days. Cells were harvested on exponentially growing phase, and cell suspension was prepared with 2×10^4 cells/mL, added with 100 μL per well of 96-well plates, and cultured for 24 h in incubator. 100 μL medium without cells was added per well as blank group.
(§4) Compound (1), (2), (3), (4), (7) or (8) was dissolved in DMSO respectively, and diluted with 1640 medium at a final concentration of 400 μg/mL, so as to that of the Cisplatin. Cells were divided into 9 groups, they were blank group, model group, Compound (1), (2), (3), (4), (7) and (8) groups, and Cisplatin group as the positive one, 6 wells per group.
(§5) Before drug administration, supernatant of each well was removed and fresh 1640 medium was added, 180 μL per well. Compounds and Cisplatin were added with 20 μL per well respectively at a final concentration of 40 μg/mL. Wells of blank and model groups were added with 0.5% DMSO, 20 μL per well. 48 hours later, 20 μL MTT was added per well and continued to culture for 4 hours, then the supernatant was replaced carefully and DMSO was added with 150 μL per well to end the experiment. The 96-well plates were shaken for 10 mins and read the absorbance at 490 nm. The Inhibition rate was calculated.
(§6) Inhibition rate=[(ODmodel−ODblank)−(ODdrugs−ODblank)]/(ODmodel−ODblank)×100%
(§7) The MTT experiment was repeated three times.

A875 = test: MTT inhibition of tumor cells in vitro (Example 3); details: Homo sapiens, A875, 40 μg/mL, 48 hours, read-out: Inhibition rate, A875
Description: as §1, §2, §3, §4, §5, §6, §7

HT29 = test: MTT inhibition of tumor cells in vitro (Example 3); details: Homo sapiens, HT-29, 48 h, 40 μg/mL, read-out: Inhibition rate, HT29
Description: as §1, §2, §3, §4, §5, §6, §7

MCF-7 = test: MTT inhibition of tumor cells in vitro (Example 3); details: Homo sapiens, MCF7, 40 μg/mL, 48 hours, read-out: Inhibition rate, MCF-7
Description: as §1, §2, §3, §4, §5, §6, §7

HepG2 = test: Inhibitory activity and IC50 to HepG2 at different time of treatment (MTT, Example 4); details: for IC50 / inhibition at 5 µg/mL / inhibition at 10 µg/mL / inhibition at 20 µg/mL / inhibition at 40 µg/mL / inhibition at 80 µg/mL: Homo sapiens; for IC50: read-out: IC50 to HepG2
Description: Human resources hepatoma cell line HepG2 was provided by Cancer Hospital, Chinese Academy of Medical Sciences. […] Cells were passaged every 2 or 3 days, and all the experiments were carried out on exponentially growing cells.
Cells were harvested in good growth status and cell suspension was prepared with 2×10^4 cells/mL, added 100 μL per well of 96-well plates, and cultured for 24 h in the incubator. 100 μL liquid medium with no cell was added per well as blank group.
3 plates were used as parallel test to culture cells at different period.
Before medication, supernatant of each well was removed and fresh 1640 medium was added, 180 μL per well. […] Wells of blank and model groups were added with 0.5% DMSO, 20 μL per well. After finished adding drugs, cells were incubated for 24 and 48 h respectively. At the end of incubation, 20 μL MTT was added per well […]. The supernatant was removed carefully and 150 μL DMSO was added per well. After shaken for 10 mins, the absorbance was read at 490 nm and the inhibition rate was calculated with the formula below.
as §6
IC50 was calculated with Bliss method.
as §7

COC(=O)C1CC(O[C@H]2CC[C@]3(C)[C@H]4C=CC5[C@@H]6CC(C)(C)CC[C@]6(C(=O)OC6OC(C)C(OC(=O)/C=C/c7ccc(C)cc7)C(OC(C)=O)C6OC6CC(C)C(O)C(O)C6O)[C@H](O)C[C@@]5(C)[C@]4(C)CC[C@H]3[C@]2(C)C=O)C(OC2OC(CO)C(O)C(O)C2O)C(OC2OCC(O)C(O)C2O)C1O (some centres unmarked) [Compound (2), sinocrassuloside VII]
inhibition at 40 µg/mL (BGC823): > 90%
inhibition at 40 µg/mL (A875): 77.5 ± 9.94%
inhibition at 40 µg/mL (HT29): > 90%
inhibition at 40 µg/mL (MCF-7): 91 ± 8.68%
highest inhibition rate (HepG2; HepG2, 20-80 μg/mL): above 99%
IC50 (HepG2; HepG2, 24 h): 5.25 µM
inhibition at 5 µg/mL (HepG2; HepG2, 24 h, read-out: Inhibition Rate, HepG2, 5 μg/ml, 24 h): 13.4 ± 5.76%
inhibition at 10 µg/mL (HepG2; HepG2, 24 h, read-out: Inhibition Rate, HepG2, 10 μg/ml, 24 h): > 80%
inhibition at 20 µg/mL (HepG2; HepG2, 24 h, read-out: Inhibition Rate, HepG2, 20 μg/ml, 24 h): 92.7 ± 2.43%
inhibition at 40 µg/mL (HepG2; HepG2, 24 h, read-out: Inhibition Rate, HepG2, 40 μg/ml, 24 h): 90 ± 2.41%
inhibition at 80 µg/mL (HepG2; HepG2, 24 h, read-out: Inhibition Rate, HepG2, 80 μg/ml, 24 h): 94.6 ± 2.59%
IC50 (HepG2; HepG2, 48 h): 4.56 µM
inhibition at 5 µg/mL (HepG2; HepG2, 48 h, read-out: Inhibition Rate, HepG2, 5 μg/ml, 48 h): 16.6 ± 8%
inhibition at 10 µg/mL (HepG2; HepG2, 48 h, read-out: Inhibition Rate, HepG2, 10 μg/ml, 48 h): > 80%
inhibition at 20 µg/mL (HepG2; HepG2, 48 h, read-out: Inhibition Rate, HepG2, 20 μg/ml, 48 h): 99.47 ± 0.56%
inhibition at 40 µg/mL (HepG2; HepG2, 48 h, read-out: Inhibition Rate, HepG2, 40 μg/ml, 48 h): 98.4 ± 1%
inhibition at 80 µg/mL (HepG2; HepG2, 48 h, read-out: Inhibition Rate, HepG2, 80 μg/ml, 48 h): 98.89 ± 0.68%
